Measurements taken from patent US11497212B2, “Substituted thiophenyl uracils, salts thereof and the use thereof as herbicidal agents” (Syngenta Crop Protection AG, priority 2017, dated 2022).

What was measured:
Assay type in all cases: in vivo
[1] = system: Digitaria sanguinalis; assay: Herbicidal action pre-emergence (greenhouse pot trial); details: application rate 80 g/ha
Source text: (§1) Seeds of mono- and dicotyledonous weeds and crop plants were laid out in plastic or organic plant pots and covered with soil. The compounds of the invention formulated in the form of wettable powders (WP) or emulsion concentrates (EC) were then applied to the surface of the covering soil as an aqueous suspension or emulsion with addition of 0.5% additive at a water application rate equivalent to 600 L/ha. After the treatment, the pots were placed in a greenhouse and kept under good growth conditions for the test plants. After about 3 weeks, the efficacy of the preparations was scored visually as a percentage by comparison with untreated controls. For example, 100% efficacy=plants have died, 0% efficacy=like control plants. Tables B1 to B16 below show the efficacies of selected compounds of the general formula (I) according to tables I.1 to I.60 on various harmful plants and an application rate corresponding to 320 g/ha or lower that were obtained by the aforementioned trial method.

[2] = system: Stellaria media; assay: as above; details: application rate 320 g/ha, scored after about 3 weeks
Source text: as §1

[3] = system: Lolium rigidum; assay: as above; details: application rate 320 g/ha
Source text: as §1

[4] = system: Veronica persica; assay: as above; details: application rate 320 g/ha
Source text: as §1

[5] = system: Pharbitis purpurea; assay: as above; details: application rate 320 g/ha
Source text: as §1

[6] = system: Amaranthus retroflexus; assay: as above; details: application rate 320 g/ha, scored after about 3 weeks
Source text: as §1

[7] = system: Abutilon theophrasti; assay: as above; details: application rate 320 g/ha, scored after about 3 weeks
Source text: as §1

[8] = system: Matricaria inodora; assay: as above; details: application rate 320 g/ha, scored after about 3 weeks
Source text: as §1

[9] = system: Viola tricolor; assay: as above; details: application rate 320 g/ha, scored after about 3 weeks
Source text: as §1

[10] = system: Alopecurus myosuroides; assay: as above; details: application rate 320 g/ha, scored after about 3 weeks
Source text: as §1

[11] = system: Setaria viridis; assay: as above; details: application rate 320 g/ha, scored after about 3 weeks
Source text: as §1

[12] = system: Echinochloa crus-galli; assay: as above; details: application rate 320 g/ha, scored after about 3 weeks
Source text: as §1

[13] = system: Avena fatua; assay: as above; details: application rate 320 g/ha
Source text: as §1

[14] = system: Triticum aestivum; assay: Crop compatibility post-emergence (greenhouse pot trial)
Outline: (§2)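 Compatibility is expressed as visually scored percent injury, where 0% means no difference from untreated controls and 100% means dead plants, assessed about 3 weeks after a foliar spray at 600 L/ha with 0.5% additive on one-leaf-stage pot plants in sandy loam.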

[15] = system: Zea mays; assay: Crop compatibility pre-emergence (greenhouse pot trial); details: effect vs untreated controls
Source text: as §1, with “plants.” for “plants. Tables B1 to B16 below show the efficacies of selected compounds of the general formula (I) according to tables I.1 to I.60 on various harmful plants and an application rate corresponding to 320 g/ha or lower that were obtained by the aforementioned trial method.”
(§3) Crop compatibilities were also scored correspondingly.
(§4) The effects observed are reported here on selected crop plants by comparison with the untreated controls (values in %).

[16] = system: Digitaria sanguinalis; assay: Herbicidal action post-emergence (greenhouse pot trial); details: application rate 80 g/ha
Outline: (§5)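 Weed seeds sown in sandy loam were grown in a greenhouse for 2–3 weeks and treated at the one-leaf stage. WP or EC formulations, with 0.5% additive, were sprayed on green parts at a water rate of 600 L/ha and at 80 g/ha or lower. Efficacy was scored visually about 3 weeks later against untreated controls.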

[17] = system: Stellaria media; assay: as above; details: application rate 80 g/ha, scored visually after about 3 weeks vs untreated controls
Outline: as §5

[18] = system: Lolium rigidum; assay: as above; details: application rate 80 g/ha, scored visually after about 3 weeks vs untreated controls
Outline: as §5

[19] = system: Veronica persica; assay: as above; details: application rate 80 g/ha
Outline: as §5

[20] = system: Pharbitis purpurea; assay: as above; details: application rate 80 g/ha
Outline: as §5

[21] = system: Amaranthus retroflexus; assay: as above; details: application rate 80 g/ha, scored visually after about 3 weeks vs untreated controls
Outline: as §5

[22] = system: Abutilon theophrasti; assay: as above; details: application rate 80 g/ha, scored visually after about 3 weeks vs untreated controls
Outline: as §5

[23] = system: Polygonum convolvulus; assay: as above; details: application rate 80 g/ha, scored visually after about 3 weeks vs untreated controls
Outline: as §5

[24] = system: Matricaria inodora; assay: as above; details: application rate 80 g/ha, scored visually after about 3 weeks vs untreated controls
Outline: as §5

[25] = system: Viola tricolor; assay: as above; details: application rate 80 g/ha
Outline: as §5

[26] = system: Alopecurus myosuroides; assay: as above; details: application rate 80 g/ha, scored visually after about 3 weeks vs untreated controls
Outline: as §5

[27] = system: Setaria viridis; assay: as above; details: application rate 80 g/ha, scored visually after about 3 weeks vs untreated controls
Outline: as §5

[28] = system: Echinochloa crus-galli; assay: as above; details: application rate 80 g/ha, scored visually after about 3 weeks vs untreated controls
Outline: as §5

[29] = system: Hordeum murinum; assay: Herbicidal action pre-emergence (greenhouse pot trial); details: application rate 320 g/ha
Source text: as §1

[30] = system: Oryza sativa; assay: Crop compatibility post-emergence (greenhouse pot trial)
Outline: as §2

[31] = system: Glycine max; assay: Crop compatibility pre-emergence (greenhouse pot trial); details: effect vs untreated controls
Source text: as §1, with “plants.” for “plants. Tables B1 to B16 below show the efficacies of selected compounds of the general formula (I) according to tables I.1 to I.60 on various harmful plants and an application rate corresponding to 320 g/ha or lower that were obtained by the aforementioned trial method.”
as §3, §4

[32] = system: Hordeum murinum; assay: Herbicidal action post-emergence (greenhouse pot trial); details: application rate 80 g/ha, scored visually after about 3 weeks vs untreated controls
Outline: as §5

SMILES	Digitaria sanguinalis (Efficacy in %) [1] [%]	Stellaria media (Efficacy in %) [2] [%]	Lolium rigidum (Efficacy in %) [3] [%]	Veronica persica (Efficacy in %) [4] [%]	Pharbitis purpurea (Efficacy in %) [5] [%]	Amaranthus retroflexus (Efficacy in %) [6] [%]	Abutilon theophrasti (Efficacy in %) [7] [%]	Matricaria inodora (Efficacy in %) [8] [%]	Viola tricolor (Efficacy in %) [9] [%]	Setaria viridis (Efficacy in %) [11] [%]	Echinochloa crus-galli (Efficacy in %) [12] [%]	Avena fatua (Efficacy in %) [13] [%]	Digitaria sanguinalis (Efficacy in %) [16] [%]	Stellaria media (Efficacy in %) [17] [%]	Lolium rigidum (Efficacy in %) [18] [%]	Veronica persica (Efficacy in %) [19] [%]	Pharbitis purpurea (Efficacy in %) [20] [%]	Amaranthus retroflexus (Efficacy in %) [21] [%]	Abutilon theophrasti (Efficacy in %) [22] [%]	Polygonum convolvulus (Efficacy in %) [23] [%]	other results
CCOCCOC(=O)C(C)Sc1cc(-n2c(=O)cc(C(F)(F)F)n(C)c2=O)c(F)cc1Cl (centres unmarked) [I.1-2]	100	100	90	100	100	100	100	100	100	100	100	90	100	100	100	100	100	100	100	100	Alopecurus myosuroides (Efficacy in %) [10]: 80%; Triticum aestivum (Efficacy in %) ([14]; application rate 5 g/ha): 20%; Zea mays (Efficacy in %) ([15]; application rate 20 g/ha): 0%; Matricaria inodora (Efficacy in %) [24]: 100%; Viola tricolor (Efficacy in %) [25]: 100%; Alopecurus myosuroides (Efficacy in %) [26]: 90%; Setaria viridis (Efficacy in %) [27]: 100%; Echinochloa crus-galli (Efficacy in %) [28]: 100%
CC1CC(COC(=O)C(C)Sc2cc(-n3c(=O)cc(C(F)(F)F)n(C)c3=O)c(F)cc2Cl)CO1 (centres unmarked) [I.1-73]	100	100	100	100	100	100	100	100	100	100	100	90	100	100	90	100	100	100	100	100	Hordeum murinum (Efficacy in %) [29]: 90%; Triticum aestivum (Efficacy in %) ([14]; application rate 80 g/ha): 20%; Oryza sativa (Efficacy in %) ([30]; application rate 20 g/ha): 5%; Glycine max (Efficacy in %) ([31]; application rate 80 g/ha): 0%; Zea mays (Efficacy in %) ([15]; application rate 80 g/ha): 0%; Hordeum murinum (Efficacy in %) [32]: 80%; Matricaria inodora (Efficacy in %) [24]: 100%; Viola tricolor (Efficacy in %) [25]: 100%; Alopecurus myosuroides (Efficacy in %) [26]: 90%; Setaria viridis (Efficacy in %) [27]: 100%; Echinochloa crus-galli (Efficacy in %) [28]: 100%
Cn1c(C(F)(F)F)cc(=O)n(-c2cc(SCC(C)(C)C(=O)OCC3CCCO3)c(Cl)cc2F)c1=O (centres unmarked) [I.48-71]	100	100	90	100	100	100	100	100	100	100	100	80	100	100	80	100	100	100	100	100	Alopecurus myosuroides (Efficacy in %) [10]: 100%; Triticum aestivum (Efficacy in %) ([14]; application rate 20 g/ha): 20%; Oryza sativa (Efficacy in %) ([30]; application rate 20 g/ha): 20%; Glycine max (Efficacy in %) ([31]; application rate 20 g/ha): 0%; Zea mays (Efficacy in %) ([15]; application rate 320 g/ha): 20%; Hordeum murinum (Efficacy in %) [32]: 80%; Matricaria inodora (Efficacy in %) [24]: 100%; Viola tricolor (Efficacy in %) [25]: 100%; Alopecurus myosuroides (Efficacy in %) [26]: 90%; Setaria viridis (Efficacy in %) [27]: 100%; Echinochloa crus-galli (Efficacy in %) [28]: 100%
Cn1c(C(F)(F)F)cc(=O)n(-c2cc(SCC(C)(C)C(=O)OCC3CCOC3)c(Cl)cc2F)c1=O (centres unmarked) [I.48-72]	100	100	80	100	100	100	100	100	100	100	100	80	100	100	80	100	100	100	100	100	Alopecurus myosuroides (Efficacy in %) [10]: 90%; Triticum aestivum (Efficacy in %) ([14]; application rate 20 g/ha): 20%; Oryza sativa (Efficacy in %) ([30]; application rate 5 g/ha): 0%; Oryza sativa (Efficacy in %) ([30]; application rate 20 g/ha): 10%; Glycine max (Efficacy in %) ([31]; application rate 320 g/ha): 10%; Zea mays (Efficacy in %) ([15]; application rate 320 g/ha): 0%; Matricaria inodora (Efficacy in %) [24]: 100%; Viola tricolor (Efficacy in %) [25]: 100%; Alopecurus myosuroides (Efficacy in %) [26]: 90%; Setaria viridis (Efficacy in %) [27]: 100%; Echinochloa crus-galli (Efficacy in %) [28]: 100%
COCCCOC(=O)C(C)Sc1cc(-n2c(=O)cc(C(F)(F)F)n(C)c2=O)c(F)cc1Cl (centres unmarked) [I.1-26]	100	100	90	100	100	100	100	100	100	100	100	80	100	100	90	100	100	100	100	100	Hordeum murinum (Efficacy in %) [29]: 100%; Triticum aestivum (Efficacy in %) ([14]; application rate 5 g/ha): 20%; Oryza sativa (Efficacy in %) ([30]; application rate 5 g/ha): 10%; Glycine max (Efficacy in %) ([31]; application rate 20 g/ha): 0%; Zea mays (Efficacy in %) ([15]; application rate 80 g/ha): 10%; Hordeum murinum (Efficacy in %) [32]: 90%; Matricaria inodora (Efficacy in %) [24]: 100%; Viola tricolor (Efficacy in %) [25]: 100%; Alopecurus myosuroides (Efficacy in %) [26]: 80%; Setaria viridis (Efficacy in %) [27]: 100%; Echinochloa crus-galli (Efficacy in %) [28]: 100%
